Results taken from patent US10238713B2, “Cyclic tetrapeptides and therapeutic applications thereof” (LODZ UNIVERSITY OF TECHNOLOGY, priority 2010, dated 2019).
Non-standard residues stand in square brackets, D forms with d. Residues, ends and D or L forms follow the SMILES beside them. β3hF = N[C@H](CC(=O)O)Cc1ccccc1

Tests used:
[1] = system: mice, carrageenan-induced foot pad edema; assay: Carrageenan-induced foot-pad edema test; assay type: in vivo, mouse; settings: 4 h after carrageenan; peptides 250 μg i.p., DEX 25 μg i.p., 30 min before; FIGS. 17A-17C
Outline: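 Mice received peptide 250 μg i.p. (DMSO/0.9% NaCl vehicle) 30 min before intradermal injection of 50 μl 2% carrageenan into the hind foot pad; dexamethasone 25 μg i.p. as reference. Foot-pad thickness measured by spring caliper at 2, 3 and 4 h; mean increase in mm ±SE, 5 mice/group.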

[2] = system: BALB/c mice, contact sensitivity to oxazolone; assay: Contact sensitivity to oxazolone in BALB/c mice (ear edema, draining lymph node cells, auricle histology); assay type: in vivo
Description: Mice: BALB/c female mice, 8-10 week-old, delivered by the Institute of Laboratory Medicine, Łódź, Poland, were used for the study. The mice were fed a commercial, pelleted food and water ad libitum. The local ethics committee approved the study.
The test was performed according to Noonan et al. (Int. Arch. Allergy Appl. Immunol., 1978, 56, 523-532), with some modifications. Mice were shaved on the abdomen (2×2 cm area) and after 24 h 100 μl of 0.5% oxazolone in acetone was applied to the shaved area. The contact sensitivity reaction was elicited 5 days later by application of 50 μl of 1% oxazolone in acetone on both sides of the ears. Ear edema was measured 48 h later using a spring caliper. The results were presented as antigen-specific increase of ear thickness (i.e. the background (BG) ear thickness of mice was subtracted from the measured thickness).
In the experiment shown, the compound of formula I-A was applied topically as a 0.1% ointment on both sides of the ears (total volume of 50 μl per ear), at 24 h and 26 h after elicitation of the reaction with the second dose of oxazolone. Reference compounds were used in a similar fashion in the form of commercially available preparations.
Superficial parotid, mandibular and accessory mandibular lymph nodes were isolated, homogenized by pressing against a stainless screen into phosphate buffered solution (PBS), washed twice and re-suspended in PBS containing 0.2% Trypan blue. The total and nonviable cell numbers were determined using a light microscope and Bürker's hemocytometer. Mice treated only with the eliciting dose of antigen served as a background control.
The auricles were fixed in 4% formalin solution for 48 h, washed for 24 h, dehydrated in an alcohol series and embedded in paraffin. The paraffin blocks were sliced in a Micron HM310 microtome into 6 μm sections. The sections were stained with haematoxylin and eosin and with toluidine blue. The histological analysis was performed in a Nikon Eclipse 801 light microscope. On the histological slides containing cross-sections of auricles, the morphometric estimations of neutrophils, macrophages, lymphocytes and mast cells in the perivascular and subepithelial connective tissue were performed. The cells were counted on the area of 0.07 mm^2 at 400× magnification. Morphometric analysis was done with the aid of imagine software NIS-Elements (Nikon). For every examined group, 25 enumerations of neutrophils, macrophages, lymphocytes and mast cells were carried out.

O=C1C[C@H](Cc2ccccc2)NC(=O)[C@@H]2CCCN2C(=O)[C@@H]2CCCN2C(=O)[C@H](Cc2ccccc2)N1 [I-A] (cyclo(FPP[β3hF]))
foot pad edema (increase of foot pad thickness), P vs Control [1]: 0.0001
toxic effect on draining lymph node cells (proportions of viable and dead cells) ([2]; topical treatment, compared to control non-treated mice, FIG. 3): negligible toxic effect
number of cells in the draining lymph nodes ([2]; topical treatment, FIG. 2): decreased the numbers of lymphocytes in the draining lymph nodes to the level registered in non-sensitized mice
cell number and composition in the inflamed auricles (histology) ([2]; topical treatment, FIG. 4): almost entirely reversed the changes observed in control mice
inhibition of the ear edema (antigen-specific increase of ear thickness) ([2]; topical, I-A as 0.1% ointment, references as commercial preparations, 24 h and 26 h after elicitation, FIG. 1): about 80%
